According to patent publication US20070060478A1, “Herbicidal mixtures comprising a safener” (BASF AKTIENGESELLSCHAFT, priority 2005, published 2007):

What was measured:
Assay type in all cases: in vivo
Settings in all cases: 50 g/ha, applied alone
wild oat = assay: post-emergence application, control of unwanted plants (damage scale 0% to 100%)
Description: (§1) The mixtures according to the invention were applied pre- or post-emergence (foliar treatment). The herbicidal compounds of component B) and of component C) were applied in the formulation in which they are present as commercially available product.
(§2) In the case of the field trials, application was effected with the aid of a mobile plot sprayer.
(§3) The test period extended over 3 to 8 weeks, and the stands were also observed at later points in time.
(§4) Damage by the herbicidal compositions was evaluated with reference to a scale of 0% to 100% in comparison with untreated control plots. 0 means no damage and 100 means complete destruction of the plants.

spring wheat = assay: post-emergence application, damage to crop plants (damage scale 0% to 100%)
Description: as §1, §2, §3, §4

durum wheat = assay: as above
Description: as §1, §2, §3, §4

green foxtail = assay: post-emergence application, control of unwanted plants (damage scale 0% to 100%)
Description: as §1, §2, §3, §4

pigweed = assay: as above
Description: as §1, §2, §3, §4

SMILES: Cc1c(C(=O)c2cnn(C)c2O)ccc(S(C)(=O)=O)c1C1=NOCC1 [4-[2-methyl-3-(4,5-dihydro-isoxazol-3-yl)-4-methylsulfonyl-benzoyl]-1-methyl-5-hydroxy-1H-pyrazole]
- control of unwanted plants (wild oat): in an excellent manner
- damages in crop plants (spring wheat): causes damages
- damages in crop plants (durum wheat): causes damages
- control of unwanted plants (green foxtail): in an excellent manner
- control of unwanted plants (pigweed): in an excellent manner
